Laboratory results as given in patent US8772343B2, “Chemical compounds” (Pfizer Limited, priority 2010, dated 2014).
Where a name gives a salt, the structure may show the parent alone.

Molecular target: T1, Nav1.7 (or SCN9A) channel (Homo sapiens, UniProt Q15858)
T1 construct: expressed in transfected cells
Assay: Nav1.7 PatchXpress automated whole-cell electrophysiology in HEK cells expressing hSCN9A
Assay type: cell-based
Conditions: estimated IC50 from single point data, PatchXpress assay, held at V1/2 of inactivation, read-out: Nav1.7 EIC50
Method: The ability of the compounds of formula (I) to block the Nav1.7 (or SCN9A) channel were measured using the assay described below.
Human Embryonic Kidney (HEK) cells were transfected with an hSCN9A construct using lipofectamine reagent (Invitrogen), using standard techniques. Cells stably expressing the hSCN9A constructs were identified by their resistance to G-418 (400 μg/ml). Clones were screened for expression using the whole-cell voltage-clamp technique.
HEK cells stably transfected with hSCN9A were maintained in DMEM medium supplemented with 10% heat-inactivated fetal bovine serum and 400 μg/ml G-418 in an incubator at 37° C. with a humidified atmosphere of 10% CO2. For HTS, cells were harvested from flasks by trypsinization and replated in an appropriate multi-well plate (typically 96 or 384 wells/plate) such that confluence would be achieved within 24 hours of plating. For electrophysiological studies, cells were removed from the culture flask by brief trypsinization and re-plated at low density onto glass cover slips. Cells were typically used for electrophysiological experiments within 24 to 72 hours after plating.
Cover slips containing HEK cells expressing hSCN9A were placed in a bath on the stage of an inverted microscope and perfused (approximately 1 ml/minutes) with extracellular solution of the following composition: 138 mM NaCl, 2 mM CaCl2, 5.4 mM KCl, 1 mM MgCl2, 10 mM glucose, and 10 mM HEPES, pH 7.4, with NaOH. […] The osmolarity of the extracellular and intracellular solutions was 300 mOsm/kg and 295 mOsm/kg, respectively. All recordings were made at room temperature (22-24° C.) using AXOPATCH 200B amplifiers and PCLAMP software (Axon Instruments, Burlingame, Calif.).
hSCN9A currents in HEK cells were measured using the whole-cell configuration of the patch-clamp technique (Hamill et al., 1981). Uncompensated series resistance was typically 2 to 5 mega ohms and >85% series resistance compensation was routinely achieved. As a result, voltage errors were negligible and no correction was applied. Current records were acquired at 20 to 50 KHz and filtered at 5 to 10 KHz.
HEK cells stably transfected with hSCN9A were viewed under Hoffman contrast optics and placed in front of an array of flow pipes emitting either control or compound-containing extracellular solutions. All compounds were dissolved in dimethyl sulfoxide to make 10 mM stock solutions, which were then diluted into extracellular solution to attain the final concentrations desired. […] The voltage-dependence of inactivation was determined by applying a series of depolarizing prepulses (8 sec long in 10 mV increments) from a negative holding potential. The voltage was then immediately stepped to 0 mV to assess the magnitude of the sodium current. Currents elicited at 0 mV were plotted as a function of prepulse potential to allow estimation of the voltage at which 50% of the channels were inactivated (midpoint of inactivation or V1/2). Compounds were tested for their ability to inhibit hSCN9A sodium channels by activating the channel with a 20 msec voltage step to 0 mV following an 8 second conditioning prepulse to the empirically determined V1/2. Compound effect (% inhibition) was determined by difference in current amplitude before and after application of test compounds. For ease of comparison, “estimated IC-50” (EIC50) values were calculated from single point electrophysiology data by the following equation, (tested concentration, uM)×(100-% inhibition/% inhibition). Inhibition values<20% and >80% were excluded from the calculation.
Electrophysiological assays were conducted with PatchXpress 7000 hardware and associated software (Molecular Devices Corp). All assay buffers and solutions were identical to those used in conventional whole-cell voltage clamp experiments described above. hSCN9A cells were grown as above to 50%-80% confluency and harvested by trypsinization. […]

T1 sequence (Q15858 whole entry): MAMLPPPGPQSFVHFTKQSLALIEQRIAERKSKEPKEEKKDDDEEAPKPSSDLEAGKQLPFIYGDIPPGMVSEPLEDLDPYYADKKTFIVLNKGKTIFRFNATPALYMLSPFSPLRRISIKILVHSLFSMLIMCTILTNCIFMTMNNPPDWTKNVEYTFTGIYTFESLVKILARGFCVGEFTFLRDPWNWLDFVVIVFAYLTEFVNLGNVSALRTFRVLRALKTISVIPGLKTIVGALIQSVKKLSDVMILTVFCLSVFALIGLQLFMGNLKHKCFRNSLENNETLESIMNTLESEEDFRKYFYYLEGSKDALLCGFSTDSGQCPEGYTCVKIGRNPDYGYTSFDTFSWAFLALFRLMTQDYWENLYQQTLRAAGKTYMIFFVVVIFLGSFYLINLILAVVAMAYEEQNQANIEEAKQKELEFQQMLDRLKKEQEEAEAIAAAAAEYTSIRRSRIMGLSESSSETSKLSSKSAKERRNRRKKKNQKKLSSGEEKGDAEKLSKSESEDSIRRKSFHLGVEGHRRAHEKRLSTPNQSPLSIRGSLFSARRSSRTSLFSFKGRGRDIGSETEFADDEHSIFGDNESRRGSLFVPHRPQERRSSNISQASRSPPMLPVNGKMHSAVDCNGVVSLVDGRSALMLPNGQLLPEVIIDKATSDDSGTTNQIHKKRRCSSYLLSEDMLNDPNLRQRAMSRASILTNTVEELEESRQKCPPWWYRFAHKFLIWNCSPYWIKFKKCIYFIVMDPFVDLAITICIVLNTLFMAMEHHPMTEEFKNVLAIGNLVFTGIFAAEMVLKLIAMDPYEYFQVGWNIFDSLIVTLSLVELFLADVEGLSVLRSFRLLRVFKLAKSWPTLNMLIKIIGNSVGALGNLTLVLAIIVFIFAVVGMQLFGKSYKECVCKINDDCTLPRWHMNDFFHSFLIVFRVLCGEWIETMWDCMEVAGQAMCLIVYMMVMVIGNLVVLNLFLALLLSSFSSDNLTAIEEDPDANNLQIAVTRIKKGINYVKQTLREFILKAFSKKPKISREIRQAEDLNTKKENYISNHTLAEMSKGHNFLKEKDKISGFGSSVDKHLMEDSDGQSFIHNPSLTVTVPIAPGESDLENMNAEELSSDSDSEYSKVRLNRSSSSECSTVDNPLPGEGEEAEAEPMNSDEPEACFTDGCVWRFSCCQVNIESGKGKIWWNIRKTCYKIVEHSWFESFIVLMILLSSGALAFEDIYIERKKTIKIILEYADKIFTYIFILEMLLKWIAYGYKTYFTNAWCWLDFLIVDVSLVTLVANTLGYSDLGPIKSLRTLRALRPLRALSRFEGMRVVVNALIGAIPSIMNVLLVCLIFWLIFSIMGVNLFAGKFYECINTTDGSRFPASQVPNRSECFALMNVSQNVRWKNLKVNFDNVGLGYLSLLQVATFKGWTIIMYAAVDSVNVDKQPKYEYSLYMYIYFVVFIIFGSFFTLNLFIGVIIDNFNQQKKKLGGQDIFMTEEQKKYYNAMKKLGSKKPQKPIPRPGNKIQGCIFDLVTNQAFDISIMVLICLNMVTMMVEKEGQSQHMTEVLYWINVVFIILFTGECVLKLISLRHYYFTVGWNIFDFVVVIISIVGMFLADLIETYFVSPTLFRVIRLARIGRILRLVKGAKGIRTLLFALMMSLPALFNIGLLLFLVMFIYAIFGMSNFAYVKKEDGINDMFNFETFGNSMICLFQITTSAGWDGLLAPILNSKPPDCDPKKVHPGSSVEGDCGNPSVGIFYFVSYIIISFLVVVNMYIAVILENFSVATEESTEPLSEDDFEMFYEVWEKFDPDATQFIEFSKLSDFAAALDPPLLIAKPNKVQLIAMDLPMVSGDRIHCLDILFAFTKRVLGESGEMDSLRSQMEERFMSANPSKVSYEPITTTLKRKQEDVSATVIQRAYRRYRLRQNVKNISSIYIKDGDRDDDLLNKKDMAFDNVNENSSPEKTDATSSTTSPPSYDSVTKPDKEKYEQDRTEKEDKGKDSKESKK

Structure (SMILES)	IC50
COc1ncccc1-c1cc(C(=O)NS(C)(=O)=O)ccc1Oc1cccc(F)c1F [Example 74, 4-(2,3-difluorophenoxy)-3-(2-methoxypyridin-3-yl)-N-(methylsulfonyl)benzamide]	1900 nM
COc1ccc(Oc2ccc(C(=O)NS(C)(=O)=O)cc2-c2cccnc2OC)cc1Cl [Example 75, 4-(3-chloro-4-methoxyphenoxy)-3-(2-methoxypyridin-3-yl)-N-(methylsulfonyl)benzamide]	310 nM
COc1ncccc1-c1cc(C(=O)NS(C)(=O)=O)ccc1Oc1ccc(Cl)cn1 [Example 76, 4-[(5-chloropyridin-2-yl)oxy]-3-(2-methoxypyridin-3-yl)-N-(methylsulfonyl)benzamide]	> 1000 nM
CCc1ccc(Oc2ccc(C(=O)NS(C)(=O)=O)cc2-c2cccnc2OC)cc1 [Example 77, 4-(4-ethylphenoxy)-3-(2-methoxypyridin-3-yl)-N-(methylsulfonyl)benzamide]	< 1000 nM
COc1ncccc1-c1cc(C(=O)NS(C)(=O)=O)ccc1Oc1ccc(F)c(C(F)(F)F)c1 [Example 78, 4-[4-fluoro-3-(trifluoromethyl)phenoxy]-3-(2-methoxypyridin-3-yl)-N-(methylsulfonyl)benzamide]	150 nM
COc1ccc(Oc2ccc(C(=O)NS(C)(=O)=O)cc2-c2cccnc2OC)c(F)c1 [Example 79, 4-(2-fluoro-4-methoxyphenoxy)-3-(2-methoxypyridin-3-yl)-N-(methylsulfonyl)benzamide]	2400 nM
CCc1ccccc1Oc1ccc(C(=O)NS(C)(=O)=O)cc1-c1cccnc1OC [Example 80, 4-(2-ethylphenoxy)-3-(2-methoxypyridin-3-yl)-N-(methylsulfonyl)benzamide]	> 1000 nM
COc1ncccc1-c1cc(C(=O)NS(C)(=O)=O)ccc1Oc1cccc(C(F)(F)F)c1F [Example 81, 4-[2-fluoro-3-(trifluoromethyl)phenoxy]-3-(2-methoxypyridin-3-yl)-N-(methylsulfonyl)benzamide]	1100 nM
COc1ncccc1-c1cc(C(=O)NS(C)(=O)=O)ccc1Oc1ccccc1C(F)(F)F [Example 82, 3-(2-methoxypyridin-3-yl)-N-(methylsulfonyl)-4-[2-(trifluoromethyl)phenoxy]benzamide]	> 1000 nM
CCOc1ccc(Oc2ccc(C(=O)NS(C)(=O)=O)cc2-c2cccnc2OC)cc1 [Example 83, 4-(4-ethoxyphenoxy)-3-(2-methoxypyridin-3-yl)-N-(methylsulfonyl)benzamide]	490 nM
CCOc1cccc(Oc2ccc(C(=O)NS(C)(=O)=O)cc2-c2cccnc2OC)c1 [Example 84, 4-(3-ethoxyphenoxy)-3-(2-methoxypyridin-3-yl)-N-(methylsulfonyl)benzamide]	490 nM
COc1cccc(Oc2ccc(C(=O)NS(C)(=O)=O)cc2-c2cccnc2OC)c1 [Example 85, 4-(3-methoxyphenoxy)-3-(2-methoxypyridin-3-yl)-N-(methylsulfonyl)benzamide]	640 nM
COc1ncccc1-c1cc(C(=O)NS(C)(=O)=O)ccc1Oc1ccc(F)cc1F [Example 86, 4-(2,4-difluorophenoxy)-3-(2-methoxypyridin-3-yl)-N-(methylsulfonyl)benzamide]	1100 nM
COc1ncccc1-c1cc(C(=O)NS(C)(=O)=O)ccc1Oc1ccc(C(F)(F)F)cc1 [Example 87, 3-(2-methoxypyridin-3-yl)-N-(methylsulfonyl)-4-[4-(trifluoromethyl)phenoxy]benzamide]	86 nM
COc1ncccc1-c1cc(C(=O)NS(C)(=O)=O)ccc1Oc1ccc(C#N)c(Cl)c1 [Example 88, 4-(3-chloro-4-cyanophenoxy)-3-(2-methoxypyridin-3-yl)-N-(methylsulfonyl)benzamide]	2500 nM
CCc1cccc(Oc2ccc(C(=O)NS(C)(=O)=O)cc2-c2cccnc2OC)c1 [Example 89, 4-(3-ethylphenoxy)-3-(2-methoxypyridin-3-yl)-N-(methylsulfonyl)benzamide]	160 nM
COc1ncccc1-c1cc(C(=O)NS(C)(=O)=O)ccc1Oc1cncc(Cl)c1 [Example 90, 4-[(5-chloropyridin-3-yl)oxy]-3-(2-methoxypyridin-3-yl)-N-(methylsulfonyl)benzamide]	1400 nM
COc1ncccc1-c1cc(C(=O)NS(C)(=O)=O)ccc1Oc1ccc(F)cc1 [Example 91, 4-(4-fluorophenoxy)-3-(2-methoxypyridin-3-yl)-N-(methylsulfonyl)benzamide]	680 nM
COc1ncccc1-c1cc(C(=O)NS(C)(=O)=O)ccc1Oc1ccc(C(C)C)cc1 [Example 92, 4-(4-isopropylphenoxy)-3-(2-methoxypyridin-3-yl)-N-(methylsulfonyl)benzamide]	38 nM
COc1ncccc1-c1cc(C(=O)NS(C)(=O)=O)ccc1Oc1ccc(OC(F)(F)F)cc1 [Example 93, 3-(2-methoxypyridin-3-yl)-N-(methylsulfonyl)-4-[4-(trifluoromethoxy)phenoxy]benzamide]	66 nM
COc1ncccc1-c1cc(C(=O)NS(C)(=O)=O)ccc1Oc1cnc(C2CC2)c(Cl)c1 [Example 94, 4-(5-chloro-6-cyclopropylpyridin-3-yloxy)-3-(2-methoxypyridin-3-yl)-N-(methylsulfonyl)benzamide]	400 nM
CCc1cc(Oc2ccc(C(=O)NS(C)(=O)=O)cc2-c2ccn[nH]2)ccc1Cl [Example 95, 4-(4-chloro-3-ethylphenoxy)-N-(methylsulfonyl)-3-(1H-pyrazol-5-yl)benzamide hydrochloride salt]	100 nM

Molecular target: T1, Nav1.7 (or SCN9A) channel
Assay: Nav1.7 Ionworks Quattro automated electrophysiology in HEK cells expressing hSCN9A
Assay type: cell-based
Conditions: estimated IC50, values marked (IW), Ionworks Quattro assay, read-out: Nav1.7 EIC50 (IW)
Method: The ability of the compounds of formula (I) to block the Nav1.7 (or SCN9A) channel were measured using the assay described below. Human Embryonic Kidney (HEK) cells were transfected with an hSCN9A construct using lipofectamine reagent (Invitrogen), using standard techniques. Cells stably expressing the hSCN9A constructs were identified by their resistance to G-418 (400 μg/ml). Clones were screened for expression using the whole-cell voltage-clamp technique. HEK cells stably transfected with hSCN9A were maintained in DMEM medium supplemented with 10% heat-inactivated fetal bovine serum and 400 μg/ml G-418 in an incubator at 37° C. with a humidified atmosphere of 10% CO2. For HTS, cells were harvested from flasks by trypsinization and replated in an appropriate multi-well plate (typically 96 or 384 wells/plate) such that confluence would be achieved within 24 hours of plating. For electrophysiological studies, cells were removed from the culture flask by brief trypsinization and re-plated at low density onto glass cover slips. Cells were typically used for electrophysiological experiments within 24 to 72 hours after plating. Electrophysiological assays were also conducted using the Ionworks Quattro automated electrophysiological platform (Molecular Devices Corp). Intracellular and extracellular solutions were as described above with the following changes, 120 μg/ml amphotericin was added to the intracellular solution to perforate the membrane and allow electrical access to the cells. hSCN9A cells were grown and harvested as for PatchXpress and cells were resuspended in extracellular solution at a concentration of 1×10^6 cells/ml. The onboard liquid handling facility of the Ionworks Quattro was used for dispensing cells and application of test compounds. A voltage protocol was then applied that comprised of a voltage step to fully inactivate the sodium channels, followed by a brief hyperpolarized recovery period to allow partial recovery from inactivation for unblocked sodium channels, followed by a test depolarized voltage step to assess magnitude of inhibition by test compound. Compound effect was determined based on current amplitude difference between the pre-compound addition and post-compound addition scans. Compounds of the Examples were tested in the assays described above and found to have the Nav1.7 EIC50 (uM) values specified in the table below. All data are derived from the PatchXpress assay unless expressly stated otherwise.

Structure (SMILES)	IC50
CS(=O)(=O)NC(=O)c1ccc(Oc2ccc(Cl)cc2)c(-c2cccc(C(F)(F)F)c2)c1 [Example 13, 6-(4-chlorophenoxy)-N-(methylsulfonyl)-3′-(trifluoromethyl)biphenyl-3-carboxamide]	24000 nM
CS(=O)(=O)NC(=O)c1ccc(Oc2ccc(Cl)cc2)c(-c2cccc(F)c2)c1 [Example 17, 6-(4-chlorophenoxy)-3′-fluoro-N-(methylsulfonyl)-biphenyl-3-carboxamide]	13000 nM
CS(=O)(=O)NC(=O)c1ccc(Oc2ccc(Cl)cc2)c(-c2cccnc2)c1 [Example 19, 4-(4-chlorophenoxy)-N-(methylsulfonyl)-3-pyridin-3-ylbenzamide]	28000 nM
